{
  "source": "BindingDB's records for doi:10.1016/j.bmc.2015.10.001",
  "about": "(Seoul National University, 2015)",
  "target": "Transient receptor potential cation channel subfamily V member 1 (Homo sapiens, UniProt Q8NER1)",
  "sequence (Q8NER1 whole entry)": "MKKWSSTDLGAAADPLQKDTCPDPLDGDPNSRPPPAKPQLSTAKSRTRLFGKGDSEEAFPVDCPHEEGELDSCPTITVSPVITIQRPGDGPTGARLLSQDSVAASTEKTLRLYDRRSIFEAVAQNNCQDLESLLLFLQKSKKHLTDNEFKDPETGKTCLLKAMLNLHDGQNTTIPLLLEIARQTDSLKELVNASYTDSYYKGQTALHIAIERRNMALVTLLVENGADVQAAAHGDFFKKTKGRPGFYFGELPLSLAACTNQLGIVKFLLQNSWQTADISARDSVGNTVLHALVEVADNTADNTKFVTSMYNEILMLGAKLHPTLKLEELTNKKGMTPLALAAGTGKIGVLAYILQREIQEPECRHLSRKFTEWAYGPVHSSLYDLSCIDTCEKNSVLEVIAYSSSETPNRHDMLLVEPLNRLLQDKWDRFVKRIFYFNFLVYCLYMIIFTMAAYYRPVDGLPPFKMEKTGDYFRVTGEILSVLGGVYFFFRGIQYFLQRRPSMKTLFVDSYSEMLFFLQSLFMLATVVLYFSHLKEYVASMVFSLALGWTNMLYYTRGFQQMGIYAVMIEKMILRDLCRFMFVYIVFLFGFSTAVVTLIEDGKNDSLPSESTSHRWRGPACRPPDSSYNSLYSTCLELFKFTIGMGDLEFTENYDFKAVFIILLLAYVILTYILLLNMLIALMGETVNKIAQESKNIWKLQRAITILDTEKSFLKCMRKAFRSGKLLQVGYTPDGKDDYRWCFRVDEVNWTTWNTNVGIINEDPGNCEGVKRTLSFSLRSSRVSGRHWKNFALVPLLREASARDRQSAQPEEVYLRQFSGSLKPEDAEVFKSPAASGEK",
  "experiment": "Antagonist activity at human TRPV1 heterologously expressed in CHO cells assessed as inhibition of capsaicin-induced activation by FLIPR assay",
  "note": "pKi: −log10 of the molar value.",
  "data": [
    {"smiles": "CCCCCOc1cc(C(F)(F)F)ccc1CNC(=O)C(C)c1ccc(NS(C)(=O)=O)c(F)c1", "note": "(stereo unspecified)", "values": [
      {"measurement": "pKi", "result": 9.15}
    ]}
  ]
}
